Patent publication US20230339977A1, “SUBSTITUTED HETEROARYL COMPOUND, AND COMPOSITION AND APPLICATION THEREOF” (SUNSHINE LAKE PHARMA CO., LTD., priority 2020, published 2023)
Where two headings read alike, the source gives them in different places.

Assays:
JAK1/TYK2 = assay: Cell level activity test of JAK1/TYK2 (IFN-α induced STAT3 phosphorylation in PBMC); assay type: cell-based; conditions: Homo sapiens; P-STAT3 by ELISA in PBMC, compound 1 h, IFN-α 5000 U/mL 15 min; read-out: IC50 nM (JAK 1 /TYK2)
Experimental: IFN-α can induce the phosphorylation of STAT3 downstream of JAK1/TYK2 in PBMC, and by measuring the level of STAT3 phosphorylation, the activity of the compound on JAK1/TYK2 at the cell level can be reflected.
Whole blood was collected from healthy subjects, anticoagulated with heparin sodium, and PBMC (human peripheral blood mononuclear cells) were extracted. PBMC were seeded in a 96-well culture plates at a density of 1*106/well. Positive wells and negative wells were added with the same volume of DMSO as the compound, and the final concentration of DMSO was 0.5%. The compounds were incubated with the cells at 37° C. for 1 h, and then stimulated by adding IFN-α at a final concentration of 5000 U/mL, an equal volume of medium was added to the negative wells, and incubated for 15 min. The cells were centrifuged to remove the supernatant, then lysed, and P-STAT3 was measured according to the instructions of the ELISA kit, the absorbance was read at 450 nm, and the IC50 value or inhibition rate was calculated.

[1] = Pharmacokinetic evaluation in rats after intravenous injection and oral administration; assay type: in vivo; conditions: rat, plasma; for AUC(0-t): read-out: PK AUClast; for Cmax: read-out: PK Cmax; for half-life: read-out: PK T½ (converted)
Experimental: The analytical LC/MS/MS system includes an Agilent 1200 series vacuum degasser, a binary syringe pump, an orifice plate autosampler, a column oven, and an Agilent G6430 triple quadrupole mass spectrometer with an electrospray ionization (ESI) source.
Agilent XDB-C18, 2.1 × 30 mm, 3.5 µM column was used to analysis, 5 µL sample was injected. Analytical conditions: Mobile phases were 0.1% formic acid in water (A) and 0.1% formic acid in methanol (B). The flow rate was 0.4 mL/min.
In addition, Agilent 6330 series LC/MS/MS spectrometer was used for analysis, equipped with G1312A binary syringe pump, G1367A automatic sampler and G1314C UV detector; LC/MS/MS spectrometer used ESI radiation source. Optimum analysis was achieved using standards with appropriate cation model processing and MRM conversion for each analyte. A Capcell MP-C18 column, 100 × 4.6 mm I.D., 5 µM (Phenomenex, Torrance, California, USA) was used during the analysis. Mobile phase was 5 mM ammonium acetate, 0.1% methanol in water (A): 5 mM ammonium acetate, 0.1% methanol in acetonitrile (B) (70/30, v/v); flow rate was 0.6 mL/min; column temperature was maintained at room temperature; 20 µL of sample was injected.
The present invention evaluates the pharmacokinetic studies of the compounds of the present invention in mice, rats, dogs or monkeys. The compounds of the present invention were administered in the form of aqueous solution or 2% HPMC + 1% Tween-80 aqueous solution, 5% DMSO + 5% saline solution, 4% MC or capsule. For intravenous administration, animals were dosed at about 0.5, 0.6, 1 or 2 mg/kg. The oral doses (p.o.) were 5 or 10 mg/kg for rats and mice, and 10 mg/kg for dogs and monkeys. Bloods (0.3 mL) were taken at time points 0.25, 0.5, 1.0, 2.0, 3.0, 4.0, 6.0, 8.0, 12 and 24 h and centrifuged at 3,000 or 4,000 rpm for 10 min. Plasma solutions were collected and stored at -20° C. or -70° C. until LC/MS/MS analysis as described above. […] Table 2 is the experimental results of the pharmacokinetic characteristics of the compounds provided in the examples of the present invention in rats.

Row | SMILES | IC50 (JAK1/TYK2) [nM] | also measured
1 | CC(=O)Nc1cc2c(-c3cc(S(C)(=O)=O)c4c(n3)C3(CCOC3)OCC4)cn(C)c2cn1 (centres unmarked) [Example 23, N-(1-meThyl-3-(4′-(Methylsulfonyl)-4,5,5′,6′-Tetrahydro-2H-Spiro[Furan-3,8′-Pyrano[3,4-b]Pyridin]-2′-yl)-1H-Pyrrolo[2,3-c]Pyridin-5-yl)Acetamide] | 104 | –
2 | CCCCOc1cc(-c2cn(C)c3cnc(NC(C)=O)cc23)nc2c1CCOC21CCOC1 (centres unmarked) [Example 20, N-(3-(4′-Butoxy-4,5,5′,6′-Tetrahydro-2H-Spiro[Furan-3,8′-pyrAno[3,4-b]Pyridine]-2′-yl)-1-Methyl-1H-Pyrrolo[2,3-c]Pyridin-5-yl)Acetamide] | 64.9 | –
3 | CC(=O)Nc1cc2c(-c3cc(N(C)C)c4c(n3)C3(CCOC3)OCC4)cn(C)c2cn1 (centres unmarked) [Example 24, N-(3-(4′-(Dimethylamino)-4,5,5′,6′-Tetrahydro-2H-Spiro[Furan-3,8′-Pyrano[3,4-b]Pyridin]-2′-yl)-1-Methyl-1H-Pyrrolo[2,3-c]Pyridin-5-yl)Acetamide] | 29.9 | –
4 | COC1(c2cccc(-c3cn(C)c4cnc(NC(C)=O)cc34)n2)CCOC1 (centres unmarked) [Control compound, reference compound] | 52.7 | –
5 | CC(=O)Nc1cc2c(-c3ccc4c(n3)C3(CCOC3)OCN4C)cn(C)c2cn1 (centres unmarked) [Example 9, N-(1-Methyl-3-(1′-Methyl-1′,2′,4,5-Tetrahydro-2Hspiro[Furan-3,4′-Pyrido[3,2-d][1,3]Oxazin]-6′-yl)-1H-Pyrrolo[2,3-c]Pyridin-5-yl)Acetamide] | 114 | –
6 | CC(=O)Nc1cc2c(-c3cc(OC(C)C)c4c(n3)C3(CCOC3)OCC4)cn(C)c2cn1 (centres unmarked) [Example 17, N-(3-(4′-Isopropoxy-4,5,5′,6′-Tetrahydro-2H-Spiro[Furan-3,8′-Pyrano[3,4-b]P yridine]-2′-yl)-1-Methyl-1H-Pyrrolo[2,3-c]Pyridin-5-yl)Acetamide] | 126 | –
7 | COCCCOc1cc(-c2cn(C)c3cnc(NC(C)=O)cc23)nc2c1CCOC21CCOC1 (centres unmarked) [Example 22, N-(3-(4′-(3-Methoxypropoxy)-4,5,5′,6′-Tetrahydro-2H-Spiro[Furan-3,8′-Pyrano[3,4-b]Pyridin]-2′-yl)-1-Methyl-1H-Pyrrolo[2,3-c]Pyridin-5-yl)Acetamide] | 7.23 | –
8 | CC(=O)Nc1cc2c(-c3cc(OCCN(C)C)c4c(n3)C3(CCOC3)OCC4)cn(C)c2cn1 (centres unmarked) [Example 19, N-(3-(4′-(2-(Dimethylamino)Ethoxy)-4,5,5′,6′-Tetrahydro-2H-Spiro[Furan-3,8′ -Pyrano[3,4-b]Pyridine]-2′-yl)-1-Methyl-1H-Pyrrolo[2,3-c]Pyridin-5-yl)Acetamide] | 115 | –
9 | CC(=O)Nc1cc2c(-c3ccc4c(n3)C3(CCOC3)OC(C)(C)N4C)cn(C)c2cn1 (centres unmarked) [Example 13, N-(1-Methyl-3-(1′,2′,2′-Trimethyl-1′,2′,4,5-Tetrahydro-2H-Spiro[Furan-3,4′-P yrido[3,2-d][1,3]Oxazin]-6′-yl)-1H-Pyrrolo[2,3-c]Pyridin-5-yl)Acetamide] | 104 | –
10 | CC(=O)Nc1cc2c(-c3ccc4c(n3)C3(CCOC3)OC(=O)N4C)cn(C)c2cn1 (centres unmarked) [Example 10, N-(1-Methyl-3-(1′-Methyl-2′-Oxo-1′,2′,4,5-Tetrahydro-2H-Spiro[Furan-3,4′-Pyrido[3,2-d][1,3]Oxazin]-6′-yl)-1H-Pyrrolo[2,3-c]Pyridin-5-yl)Acetamide] | > 1000 | –
11 | COCc1cc(-c2cn(C)c3cnc(NC(C)=O)cc23)nc2c1CCOC21CCOC1 (centres unmarked) [Example 8, N-(3-(4′-(Methoxymethyl)-4,5,5′,6′-Tetrahydro-2H-Spiro[Furan-3,8′-Pyrano[3,4-b]Pyridin]-2′-yl)-1-Methyl-1H-Pyrrolo[2,3-c]Pyridin-5-yl)Acetamide] | 41.2 | –
12 | CC(=O)Nc1cc2c(-c3cc(OCCCN(C)C)c4c(n3)C3(CCOC3)OCC4)cn(C)c2cn1 (centres unmarked) [Example 29, N-(3-(4′-(3-(Dimethylamino)Propoxy)-4,5,5′,6′-Tetrahydro-2H-Spiro[Furan-3, 8′-Pyrano[3,4-b]Pyridin]-2′-yl)-1-Methyl-1H-Pyrrolo[2,3-c]Pyridin-5-yl)Acetamide] | 93.1 | –
13 | CC(=O)Nc1cc2c(-c3cc(C(F)F)c4c(n3)C3(CCOC3)OCC4)cn(C)c2cn1 (centres unmarked) [Example 7, N-(3-(4′-(Difluoromethyl)-4,5,5′,6′-Tetrahydro-2H-Spiro[Furan-3,8′-Pyrano[3,4-b]Pyridin]-2′-yl)-1-Methyl-1H-Pyrrolo[2,3-c]Pyridin-5-yl)Acetamide] | 14.1 | –
14 | COCCOc1cc(-c2cn(C)c3cnc(NC(C)=O)cc23)nc2c1CCOC21CCOC1 (centres unmarked) [Example 15, N-(3-(4′-(2-Methoxyethoxy)-4,5,5′,6′-Tetrahydro-2H-Spiro[Furan-3,8′-Pyrano [3,4-b]Pyridin]-2′-yl)-1-Methyl-1H-Pyrrolo[2,3-c]Pyridin-5-yl)Acetamide] | 48.6 | –
15 | COCCCCOc1cc(-c2cn(C)c3cnc(NC(C)=O)cc23)nc2c1CCOC21CCOC1 (centres unmarked) [Example 28, N-(3-(4′-(4-Methoxybutoxy)-4,5,5′,6′-Tetrahydro-2H-Spiro[Furan-3,8′-Pyrano[3,4-b]Pyridin]-2′-yl)-1-Methyl-1H-Pyrrolo[2,3-c]Pyridin-5-yl)Acetamide] | 12.9 | –
16 | CC(=O)Nc1cc2c(-c3cc(OCCC(C)(C)O)c4c(n3)C3(CCOC3)OCC4)cn(C)c2cn1 (centres unmarked) [Example 26, N-(3-(4′-(3-Hydroxy-3-Methylbutoxy)-4,5,5′,6′-Tetrahydro-2H-Spiro[Furan-3, 8′-Pyrano[3,4-b]Pyridin]-2′-yl)-1-Methyl-1H-Pyrrolo[2,3-c]Pyridin-5-yl)Acetamide] | 110 | AUC(0-t) ([1]; IV 2 mg/kg): 494 ng·h/mL; Cmax ([1]; IV 2 mg/kg): 289 ng/mL; half-life ([1]; IV 2 mg/kg): 1.65 h; AUC(0-t) ([1]; PO 5 mg/kg): 2290 ng·h/mL; Cmax ([1]; PO 5 mg/kg): 612 ng/mL; half-life ([1]; PO 5 mg/kg): 3.62 h; bioavailability ([1]; oral bioavailability, PO 5 mg/kg): 98.5%
17 | CC(=O)Nc1cc2c(-c3ccc4c(n3)C3(CCCOC3)OC4)cn(C)c2cn1 (centres unmarked) [Example 11, N-(3-(5′,6′-Dihydro-2′H,4′H,5H-Spiro[Furo[3,4-b]Pyridin-7,3′-Pyran]-2-yl)-1-Methyl-1H-Pyrrolo[2,3-c]Pyridin-5-yl)Acetamide] | > 1000 | –
18 | CC(=O)Nc1cc2c(-c3cc(C#N)c4c(n3)C3(CCOC3)OCC4)cn(C)c2cn1 (centres unmarked) [Example 25, N-(3-(4′-Cyano-4,5,5′,6′-Tetrahydro-2H-Spiro[Furan-3,8′-Pyrano[3,4-b]Pyridine]-2′-yl)-1-Methyl-1H-Pyrrolo[2,3-c]Pyridin-5-yl)Acetamide] | 45.5 | –
19 | CC(=O)Nc1cc2c(-c3ccc4c(n3)C3(CCOC3)OCC4(F)F)cn(C)c2cn1 (centres unmarked) [Example 18, N-(3-(5′,5′-Difluoro-4,5,5′,6′-Tetrahydro-2H-Spiro[Furan-3,8′-Pyrano[3,4-b]P yridine]-2′-yl)-1-Methyl-1H-Pyrrolo[2,3-c]Pyridin-5-yl)Acetamide] | 19.6 | –
20 | CC(=O)Nc1cc2c(-c3cc(Cl)c4c(n3)C3(CCOC3)OCC4)cn(C)c2cn1 (centres unmarked) [Example 21, N-(3-(4′-Chloro-4,5,5′,6′-Tetrahydro-2H-Spiro[Furan-3,8′-Pyrano[3,4-b]Pyridine]-2′-yl)-1-Methyl-1H-Pyrrolo[2,3-c]Pyridin-5-yl)Acetamide] | 36.9 | –
21 | COC(C)(C)CCOc1cc(-c2cn(C)c3cnc(NC(C)=O)cc23)nc2c1CCOC21CCOC1 (centres unmarked) [Example 27, N-(3-(4′-(3-Methoxy-3-Methylbutoxy)-4,5,5′,6′-Tetrahydro-2H-Spiro[Furan-3, 8′-Pyrano[3,4-b]Pyridin]-2′-yl)-1-Methyl-1H-Pyrrolo[2,3-c]Pyridin-5-yl)Acetamide] | 13.1 | –
22 | COc1cc(-c2cn(C)c3cnc(NC(C)=O)cc23)nc2c1CCOC21CCOC1 (centres unmarked) [Example 5, N-(3-(4′-Methoxy-4,5,5′,6′-Tetrahydro-2H-Spiro[Furan-3,8′-Pyrano[3,4-b]Pyridin]-2′-yl)-1-Methyl-1H-Pyrrolo[2,3-c]Pyridin-5-yl)Acetamide] | 178 | –
